Assays:
Type in all cases: functional
[1] = test system: K562; experiment: Growth inhibition of human K562 cells assessed as cell growth at 10^-5 M incubated for 48 hrs by sulforhodamine B assay relative to control; conditions: K562, 48 h, read-out: Activity
[2] = test system: SK-MEL-28; experiment: Growth inhibition of human SK-MEL-28 cells assessed as cell growth at 10^-8 M incubated for 48 hrs by sulforhodamine B assay relative to control; conditions: SK-MEL-28, 48 h, read-out: Activity
[3] = test system: K562; experiment: Growth inhibition of human K562 cells assessed as cell growth at 10^-8 M incubated for 48 hrs by sulforhodamine B assay relative to control; conditions: K562, 48 h, read-out: Activity
[4] = test system: SK-OV-3; experiment: Growth inhibition of human SKOV3 cells assessed as cell growth at 10^-8 M incubated for 48 hrs by sulforhodamine B assay relative to control; conditions: SK-OV-3, 48 h, read-out: Activity
[5] = test system: HCT-15; experiment: Growth inhibition of human HCT15 cells assessed as cell growth at 10^-6 M incubated for 48 hrs by sulforhodamine B assay relative to control; conditions: HCT-15, 48 h, read-out: Activity
[6] = test system: TK-10; experiment: Growth inhibition of human TK10 cells assessed as cell growth at 10^-8 M incubated for 48 hrs by sulforhodamine B assay relative to control; conditions: TK-10, 48 h, read-out: Activity
[7] = test system: HCT-15; experiment: Growth inhibition of human HCT15 cells assessed as cell growth at 10^-4 M incubated for 48 hrs by sulforhodamine B assay relative to control; conditions: HCT-15, 48 h, read-out: Activity
[8] = test system: NCI/ADR-RES; experiment: Growth inhibition of human NCI/ADR-RES cells assessed as cell growth at 10^-8 M incubated for 48 hrs by sulforhodamine B assay relative to control; conditions: read-out: Activity
[9] = test system: COLO 205; experiment: Growth inhibition of human COLO205 cells assessed as cell growth at 10^-5 M incubated for 48 hrs by sulforhodamine B assay relative to control; conditions: COLO 205, 48 h, read-out: Activity
[10] = test system: SR; experiment: Growth inhibition of human SR cells assessed as cell growth at 10^-6 M incubated for 48 hrs by sulforhodamine B assay relative to control; conditions: read-out: Activity
[11] = test system: SN12C; experiment: Growth inhibition of human SN12C cells assessed as cell growth at 10^-4 M incubated for 48 hrs by sulforhodamine B assay relative to control; conditions: read-out: Activity
[12] = test system: K562; experiment: Growth inhibition of human K562 cells assessed as cell growth at 10^-6 M incubated for 48 hrs by sulforhodamine B assay relative to control; conditions: K562, 48 h, read-out: Activity
[13] = test system: A549; experiment: Growth inhibition of human A549/ATCC cells assessed as cell growth at 10^-4 M incubated for 48 hrs by sulforhodamine B assay relative to control; conditions: A549, 48 h, read-out: Activity
[14] = test system: HCC 2998; experiment: Growth inhibition of human HCC2998 cells assessed as cell growth at 10^-7 M incubated for 48 hrs by sulforhodamine B assay relative to control; conditions: HCC 2998, 48 h, read-out: Activity
[15] = test system: NCI-H522; experiment: Growth inhibition of human NCI-H522 cells assessed as cell growth at 10^-4 M incubated for 48 hrs by sulforhodamine B assay relative to control; conditions: NCI-H522, 48 h, read-out: Activity
[16] = test system: MDA-MB-435; experiment: Growth inhibition of human MDA-MB-435 cells assessed as cell growth at 10^-8 M incubated for 48 hrs by sulforhodamine B assay relative to control; conditions: MDA-MB-435, 48 h, read-out: Activity
[17] = test system: SR; experiment: Growth inhibition of human SR cells assessed as cell growth at 10^-4 M incubated for 48 hrs by sulforhodamine B assay relative to control; conditions: read-out: Activity
[18] = test system: NCI-H460; experiment: Growth inhibition of human NCI-H460 cells assessed as cell growth at 10^-8 M incubated for 48 hrs by sulforhodamine B assay relative to control; conditions: NCI-H460, 48 h, read-out: Activity
[19] = test system: NCI-H226; experiment: Growth inhibition of human NCI-H226 cells assessed as cell growth at 10^-8 M incubated for 48 hrs by sulforhodamine B assay relative to control; conditions: NCI-H226, 48 h, read-out: Activity
[20] = test system: UO-31; experiment: Growth inhibition of human UO31 cells assessed as cell growth at 10^-5 M incubated for 48 hrs by sulforhodamine B assay relative to control; conditions: UO-31, 48 h, read-out: Activity
[21] = test system: OVCAR-3; experiment: Growth inhibition of human OVCAR3 cells assessed as cell growth at 10^-6 M incubated for 48 hrs by sulforhodamine B assay relative to control; conditions: OVCAR-3, 48 h, read-out: Activity
[22] = test system: NCI-H522; experiment: Growth inhibition of human NCI-H522 cells assessed as cell growth at 10^-7 M incubated for 48 hrs by sulforhodamine B assay relative to control; conditions: NCI-H522, 48 h, read-out: Activity
[23] = test system: EKVX; experiment: Growth inhibition of human EKVX cells assessed as cell growth at 10^-8 M incubated for 48 hrs by sulforhodamine B assay relative to control; conditions: read-out: Activity
[24] = test system: MDA-MB-468; experiment: Growth inhibition of human MDA-MB-468 cells assessed as cell growth at 10^-5 M incubated for 48 hrs by sulforhodamine B assay relative to control; conditions: MDA-MB-468, 48 h, read-out: Activity
[25] = test system: SNB-19; experiment: Growth inhibition of human SNB19 cells assessed as cell growth at 10^-7 M incubated for 48 hrs by sulforhodamine B assay relative to control; conditions: SNB-19, 48 h, read-out: Activity
[26] = test system: MDA-MB-435; experiment: Growth inhibition of human MDA-MB-435 cells assessed as cell growth at 10^-4 M incubated for 48 hrs by sulforhodamine B assay relative to control; conditions: MDA-MB-435, 48 h, read-out: Activity
[27] = test system: SNB-75; experiment: Growth inhibition of human SNB75 cells assessed as cell growth at 10^-7 M incubated for 48 hrs by sulforhodamine B assay relative to control; conditions: SNB-75, 48 h, read-out: Activity
[28] = test system: SW-620; experiment: Growth inhibition of human SW620 cells assessed as cell growth at 10^-8 M incubated for 48 hrs by sulforhodamine B assay relative to control; conditions: SW-620, 48 h, read-out: Activity
[29] = test system: RXF 393; experiment: Growth inhibition of human RXF393 cells assessed as cell growth at 10^-4 M incubated for 48 hrs by sulforhodamine B assay relative to control; conditions: RXF 393, 48 h, read-out: Activity
[30] = test system: K562; experiment: Growth inhibition of human K562 cells assessed as cell growth at 10^-4 M incubated for 48 hrs by sulforhodamine B assay relative to control; conditions: K562, 48 h, read-out: Activity
[31] = test system: NCI-H460; experiment: Growth inhibition of human NCI-H460 cells assessed as cell growth at 10^-4 M incubated for 48 hrs by sulforhodamine B assay relative to control; conditions: NCI-H460, 48 h, read-out: Activity
[32] = test system: SK-MEL-5; experiment: Growth inhibition of human SK-MEL-5 cells assessed as cell growth at 10^-4 M incubated for 48 hrs by sulforhodamine B assay relative to control; conditions: SK-MEL-5, 48 h, read-out: Activity
[33] = test system: TK-10; experiment: Growth inhibition of human TK10 cells assessed as cell growth at 10^-6 M incubated for 48 hrs by sulforhodamine B assay relative to control; conditions: TK-10, 48 h, read-out: Activity
[34] = test system: SF-539; experiment: Growth inhibition of human SF539 cells assessed as cell growth at 10^-5 M incubated for 48 hrs by sulforhodamine B assay relative to control; conditions: SF-539, 48 h, read-out: Activity

Compound `CCCCOc1nc2ccccc2cc1C1CNC(=O)c2ccccc2N1` (centres undefined) has a growth at 10 µM [1] of 7%, a growth at 0.01 µM [2] of 103% and a growth at 0.01 µM [3] of 102%. For the same compound, the growth at 0.01 µM [4] was 88%, the growth at 1 µM [5] was 69% and the growth at 0.01 µM [6] was 75%. For the same compound, the growth at 100 µM [7] was -74%, the growth at 0.01 µM [8] was 94% and the growth at 10 µM [9] was -43%. The growth at 1 µM [10] was 55%, the growth at 100 µM [11] was -53% and the growth at 1 µM [12] was 46%. For the same compound, the growth at 100 µM [13] was -75%, the growth at 0.1 µM [14] was 93% and the growth at 100 µM [15] was -35%. The growth at 0.01 µM [16] was 95%, the growth at 100 µM [17] was -25% and the growth at 0.01 µM [18] was 101%. It also gave a growth at 0.01 µM [19] of 97%, a growth at 10 µM [20] of 31% and a growth at 1 µM [21] of 64%. It also gave a growth at 0.1 µM [22] of 107%, a growth at 0.01 µM [23] of 90% and a growth at 10 µM [24] of -10%. The growth at 0.1 µM [25] was 95%, the growth at 100 µM [26] was -74% and the growth at 0.1 µM [27] was 89%. The growth at 0.01 µM [28] was 96%, the growth at 100 µM [29] was -58% and the growth at 100 µM [30] was -25%. For the same compound, the growth at 100 µM [31] was -73%, the growth at 100 µM [32] was -24% and the growth at 1 µM [33] was 92%. For the same compound, the growth at 10 µM [34] was -12%.
